Here are results for four compounds from US12661316B2, “Creatine and/or creatinine compositions and related methods” (ThermoLife International, LLC, priority 2018, dated 2026).

The nature of data set [1]: Human study: side effects, liver and kidney function (Example 7). Format: in vivo.
The conditions of data set [2]: cited from earlier work.
The conditions of data set [3]: dosages up to 30 g for a few days; human subject; cited from earlier work.
Data set [4] is described as follows: Chemical stability of creatine nitrate, creatine monohydrate and buffered creatine in pH 2.5 and pH 6.8 buffer. Conditions: for pH of samples, initial: start of 12 days; for pH of samples, final: within a period of 12 days; for degradation rate constant: about 10 mg/ml. As to the method:
The chemical stability of creatine nitrate (CN), creatine monohydrate (CM), and buffered creatine (BC) were examined under two different storage conditions: (1) 37° C. in pH 2.5 buffer and (2) 40° C. in pH 6.8 buffer. A concentration of about 10 mg/ml of CN, CM and BC were prepared in both pH 2.5 and pH 6.8 buffer and stored in stability chambers in screw capped bottles at 37° C. and 40° C., respectively.

For data set [5] the following is noted: with caffeine intake; cited from earlier work.
For data set [6] the following is noted: cited from earlier work; for creatine degraded: three days of storage at 25° C.
For data set [7] the following is noted: radiokinetic bioavailability study; cited from earlier work.
For data set [8] the following is noted: dogs; cited from earlier work.
Another data set relates to human blood cells. Conditions: addition of creatinine to human blood cells; cited from earlier work.
For data set [9] the following is noted: injection of creatinine; mice; cited from earlier work.
The conditions of data set [10]: normal human volunteers who had ingested creatinine; cited from earlier work.

SMILES strings stand for the structures. Read-outs that look alike come from different tables or passages of the source.

In the case of `CN(CC(=O)O)C(=N)N.O` [CM, creatine monohydrate], the “negative side effects (side effect reporting questionnaire)” value in [1] (in vivo) is “one subject reported gastrointestinal disturbances”. The degradation in solution result in [2] (refrigerated) is “slowed the rate of degradation”. Moreover, the degradation in solution entry in data set [2] (stored at room temperature) was “degraded into creatinine within several days”. The “increase of total creatine content in skeletal muscles” value in [3] is on record as “more than 20%”. In data set [4] (37° C. in pH 2.5 buffer), the “pH of samples, initial” value came to 3.08±0.01 and the “pH of samples, final” value was 4.12±0.01.
As for `CN(CC(=O)O)C(=N)N.O=[N+]([O-])O` [CN, creatine nitrate], the “negative side effects (side effect reporting questionnaire)” value in data set [1] (ten human volunteers, nine did not report any negative side effects) is on record as “one subject reported gastrointestinal disturbances”. Besides, in data set [4] (37° C. in pH 2.5 buffer), the degradation rate constant came to 0.075±0.001 per day. Besides, in data set [4] (40° C. in pH 6.8 buffer), the degradation rate constant amounted to 0.115±0.001 per day; the “pH of samples, initial” value worked out at 2.83±0.01; the “pH of samples, final” value was 4.31±0.01.
On to `CN(CC(=O)O)C(=N)N` [creatine], for which the “ergogenic effect on muscle” value in data set [5] was “completely eliminated”. For the same compound, in [6] (neutral pH (7.5 or 6.5)), the stability in solution entry was “relatively stable”. The creatine degraded is given as 21% in [6] (pH 3.5), 12% in data set [6] (pH 4.5) and 4% in [6] (pH 5.5). The creatine bioavailability result in [7] was “sharply reduced with increasing doses”.
As to `CN1CC(=O)NC1=N` [creatinine], the erythrocyte survival time entry in data set [8] is listed as “significant decrease”. For the same compound, the spontaneous hemolysis result with human blood cells is given as “significant increase in spontaneous hemolysis”. The behavioural effect entry in data set [9] is given as “sedating or stupefying effect”. The red cell lysis entry in data set [10] is given as “same red cell lysing pattern”.
